Like-named read-outs stand apart in the source and are kept apart here.
What was measured:
His6-TEV-PPARγ-(234-505) = target: T1, His6-TEV-PPARγ-(234-505) (Homo sapiens, UniProt P37231); test: TR-FRET Assay to Measure Co-R Peptide Recruitment to PPARγ; assay type: biochemical; details: Co-R peptide (SMRT-ID2) recruitment, top final concentration 20 μM, read-out: TR-FRET i-Ag, AC50
T1 construct: The His6-TEV-PPARγ-(234-505) protein for assay was expressed and purified; TEV cleavage site (N); made in house
T1 sequence (P37231 234-505): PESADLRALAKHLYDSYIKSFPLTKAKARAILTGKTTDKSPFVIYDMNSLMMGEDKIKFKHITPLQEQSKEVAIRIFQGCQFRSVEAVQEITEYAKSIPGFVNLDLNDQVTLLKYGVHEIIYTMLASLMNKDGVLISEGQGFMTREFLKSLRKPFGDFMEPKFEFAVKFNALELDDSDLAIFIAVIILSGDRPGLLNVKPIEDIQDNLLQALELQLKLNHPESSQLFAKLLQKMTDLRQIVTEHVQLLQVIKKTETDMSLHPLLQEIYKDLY
Method in brief: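 His-tagged PPARγ (or controls) was preincubated with compound for 20 minutes at room temperature, then 5 nM anti-His terbium antibody and 200 nM FITC-labeled SMRT-ID2 corepressor peptide (final) were added for a further hour. TR-FRET signal was normalized to percent response using 500 nM T0070907 and DMSO controls.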

UM-UC-9 engineered cells = test: Cell proliferation / short-term viability assay, CellTiter-Glo 144 h; assay type: cell-based, human; details: read-out: CTGlo 144 h UMUC9.5, G150
Description: Cell Seeding for Proliferation Assay
UM-UC-9 engineered cells were cultured in Dulbecco's Modified Eagle Medium (DMEM) supplemented with 10% FBS, 25 mM glucose (high glucose), 4.0 mM L-glutamine, 2.0 mM GlutaMAX™, 1.0 mM pyruvate, 1.0% non-essential amino acids (NEAA) in a 95% humidified incubator at 37° C. with 5% CO2. Cell banks of UM-UC-9 engineered assay-ready cells (ARCs) were prepared from a very active growth stage. Vials of ARCs containing approximately 5×10^6 cells per vial were stored in liquid nitrogen vapor phase cryostorage until use.
For making assay plates, ARCs were recovered from cryostorage, strained in a […] cell strainer, verified for cell viability >90% and counted using a cell counter (Cellometer Auto 1000, Nexelom). Each cell line was seeded into 384-well plates (50 μl/well) using DMEM medium at a density previously determined to be in log growth phase 7 days post-seeding (500 cells/well) using a bulk reagent dispenser (Multidrop™ Combi, Thermo Scientific) with a large-bore plastic-tip cassette pre-sanitized with 70% ethanol. One plate of cells was designated as the pretreatment time-zero (T0) control. Freshly seeded plates were allowed to sit lidded for 30 minutes within a biosafety cabinet for cells to settle distributed within the plate wells uniformly and then placed into an automated incubator (STX110, Liconic) at 37° C., 5% CO2, and 95% relative humidity.
Preparation of Test Compound in Assay-Ready Plate
Compounds were stored in a low-temperature sample archive as 10 mM dimethyl sulfoxide (DMSO) solutions at −20° C. under reduced humidity (−45° C. dew point) and protected from light. All samples in the automated archive are stored in 2D barcoded polypropylene tubes, tracked through a laboratory information management system (LIMS), and have been verified for identity and purity by NMR (Chemistry, H3 Biomedicine) and by LCMS (Analytical Chemistry, H3 Biomedicine) at the time of sample registration. Identity by mass matching and purity are again verified at the time of sample request fulfillment by redundant LCMS methods (acidic and basic separation protocols; Analytical Chemistry, H3 Biomedicine). Samples retrieved from low-temperature archive storage were solubilized by heated sonication (Bransonic® Ultrasonic Bath, Branson), transferred (Microlab Starlet, Hamilton) and serially-diluted (Viaflo Assist, Integra) by low-volume liquid handlers, and tracked in LIMS by automation log files to create a ID barcoded master dose-response plate (MDR) to serve as a standard source for all assay-ready plates (ARP) used within an experiment. ARPs prepared by acoustic transfer (ATS-100, EDC) of nL volumes from the MDR source were heat-sealed (PlateLoc, Agilent) and stored at −20° C. prior to use (<7 days from production). Tracking of liquid transfers via acoustic dispenser log files were used to update the LIMS system for all ARP plate maps.
Measurement of Pretreatment Control Cells and Sample Anti-Proliferative Effects on Treated Cells
On day 0 (pretreatment cells) or day 7 (treated cells), a cell proliferation assay was performed using an automated robotic assay platform (ACell, High-Res Biosolutions). Cell ARP's were removed from incubation, their plate lid discarded, and using a bulk reagent dispenser (Multidrop™ Combi, Thermo Scientific with a small-bore metal-tip cassette) 25 μL (1/2 volume) of Cell Titer-Glo® 2.0 Cell Viability Assay reagent (Promega) was added to wells of columns 1-23 (column 24 will be used as plate background or positive control). Cell ARP's were incubated at room temperature in an automation hotel position for a total of 1.0 minute while the next plate was delivered to the bulk reagent dispenser and then lid-free cell ARP's were returned to incubate at 37° C. for 2.5 hours. […]

Row | Compound | AC50 (His6-TEV-PPARγ-(234-505)) | IC50 (UM-UC-9 engineered cells) | IC50 (UM-UC-9 engineered cells; Homo sapiens, UM-UC-9, 144 h) | AC50 (His6-TEV-PPARγ-(234-505); listed as 114a) | IC50 (UM-UC-9 engineered cells; listed as 114a)
1 | COc1cc(-c2cc(C(=O)N3CCC(C(=O)NC4CN(C5CCOC5)C4)CC34CC4)n[nH]2)c(F)cn1 (mixture of isomers) [Example 433, (S)-4-(5-(5-fluoro-2-methoxypyridin-4-yl)-1H-pyrazole-3-carbonyl)-N-(1-((S)-tetrahydrofuran-3-yl)azetidin-3-yl)-4-azaspiro[2.5]octane-7-carboxamide and (S)-4-(5-(5-fluoro-2-methoxypyridin-4-yl)-1H-pyrazole-3-carbonyl)-N-(1-((R)-tetrahydrofuran-3-yl)azetidin-3-yl)-4-azaspiro[2.5]octane-7-carboxamide] | 89.6 nM | 695 nM | – | – | –
2 | COc1cc(-c2cc(C(=O)N3CC[C@H](C(=O)NCC45CC(C(F)(F)F)(C4)C5)CC34CC4)[nH]n2)c(F)cn1 [Example 515, (S)-4-(3-(5-fluoro-2-methoxypyridin-4-yl)-1H-pyrazole-5-carbonyl)-N-((3-(trifluoromethyl)bicyclo[1.1.1]pentan-1-yl)methyl)-4-azaspiro[2.5]octane-7-carboxamide] | 5 nM | – | 6 nM | – | –
3 | COc1cc(-c2cc(C(=O)N3CCC(C(=O)NC4CCC(C)CC4)CC3)n[nH]2)c(F)cn1 (single isomer, unassigned) [Example 114-A] | – | – | – | 3470 nM | 4430 nM
4 | COc1cc(-c2cc(C(=O)N3CCC(C(=O)Nc4cnn5c4CC(O)CC5)CC34CC4)n[nH]2)c(F)cn1 (mixture of isomers) [Example 514, (S)-4-(5-(5-fluoro-2-methoxypyridin-4-yl)-1H-pyrazole-3-carbonyl)-N—((S)-5-hydroxy-4,5,6,7-tetrahydropyrazolo[1,5-a]pyridin-3-yl)-4-azaspiro[2.5]octane-7-carboxamide and (S)-4-(5-(5-fluoro-2-methoxypyridin-4-yl)-1H-pyrazole-3-carbonyl)-N—((R)-5-hydroxy-4,5,6,7-tetrahydropyrazolo[1,5-a]pyridin-3-yl)-4-azaspiro[2.5]octane-7-carboxamide] | 33.7 nM | > 10000 nM | – | – | –
5 | COc1cc(-c2cc(C(=O)N3CCC(C(=O)NCc4cc(F)ccc4Cl)CC3)n[nH]2)c(Cl)cn1 [Example 125, 1-(5-(5-chloro-2-methoxypyridin-4-yl)-1H-pyrazole-3-carbonyl)-N-(2-chloro-5-fluorobenzyl)piperidine-4-carboxamide] | 24.6 nM | – | 301 nM | – | –
6 | COc1cc(-c2cc(C(=O)N3CCC(C(=O)NCc4cnc5[nH]ccc5c4)CC3)n[nH]2)c(Cl)cn1 [Example 168, N-((1H-pyrrolo[2,3-b]pyridin-5-yl)methyl)-1-(5-(5-chloro-2-methoxypyridin-4-yl)-1H-pyrazole-3-carbonyl)piperidine-4-carboxamide] | 45.7 nM | – | 487 nM | – | –
7 | COc1cc(-c2cc(C(=O)N3CC[C@H](C(=O)NCc4ncc(N5CC6CC5CN6)cc4Cl)CC34CC4)n[nH]2)c(F)cn1 (single isomer, unassigned) [Example 462-A] | 22.5 nM | 551 nM | – | – | –
8 | COc1cc(-c2cc(C(=O)N3CCC(C(=O)NCc4ccc5ncoc5c4)CC3)n[nH]2)c(Cl)cn1 [Example 152] | 853 nM | – | 825 nM | – | –
9 | (1R,3S,5S)-8-[5-(5-fluoro-2-methoxypyridin-4-yl)-1H-pyrazole-3-carbonyl]-N-[(1r,4r)-4-(2-methoxyethoxy)-4-(trifluoromethyl)cyclohexyl]-8-azabicyclo[3.2.1]octane-3-carboxamide and (1R,3S,5S)-8-[5-(5-fluoro-2-methoxypyridin-4-yl)-1H-pyrazole-3-carbonyl]-N-[(1s,4s)-4-(2-methoxyethoxy)-4-(trifluoromethyl)cyclohexyl]-8-azabicyclo[3.2.1]octane-3-carboxamide [Example 304] | 44.4 nM | 201 nM | – | – | –
10 | COc1cc(-c2cc(C(=O)N3CC[C@H](C(=O)NCC45COC(C)(C4)C5)CC34CC4)n[nH]2)c(F)cn1 [Example 343, (S)-4-(5-(5-fluoro-2-methoxypyridin-4-yl)-1H-pyrazole-3-carbonyl)-N-((1-methyl-2-oxabicyclo[2.1.1]hexan-4-yl)methyl)-4-azaspiro[2.5]octane-7-carboxamide] | 20 nM | – | 93 nM | – | –
11 | COc1cc(-c2cc(C(=O)N3CCC(C(=O)NCc4ccc(C)o4)CC3)n[nH]2)c(Cl)cn1 [Example 189, 1-(5-(5-chloro-2-methoxypyridin-4-yl)-1H-pyrazole-3-carbonyl)-N-((5-methylfuran-2-yl)methyl)piperidine-4-carboxamide] | 119 nM | – | 521 nM | – | –
12 | COc1cc(-c2cc(C(=O)N3CC[C@@H](C(=O)N[C@@H]4CCN(CC(C)(C)O)C4)CC34CC4)[nH]n2)c(F)cn1 [Example 344-A, (R)-4-(3-(5-fluoro-2-methoxypyridin-4-yl)-1H-pyrazole-5-carbonyl)-N—((R)-1-(2-hydroxy-2-methylpropyl)pyrrolidin-3-yl)-4-azaspiro[2.5]octane-7-carboxamide] | 14800 nM | – | > 10000 nM | – | –
13 | COc1cc(-c2cc(C(=O)N3CCC(C(=O)NCc4ncccc4C(F)(F)F)CC3)n[nH]2)c(Cl)cn1 [Example 130, 1-(5-(5-chloro-2-methoxypyridin-4-yl)-1H-pyrazole-3-carbonyl)-N-((3-(trifluoromethyl)pyridin-2-yl)methyl)piperidine-4-carboxamide] | 75.9 nM | – | 685 nM | – | –
14 | COc1cc(-c2cc(C(=O)N3CC[C@H](C(=O)NC4CCN(C5COC5)CC4)CC34CC4)n[nH]2)c(F)cn1 [Example 417, (S)-4-(5-(5-fluoro-2-methoxypyridin-4-yl)-1H-pyrazole-3-carbonyl)-N-(1-(oxetan-3-yl)piperidin-4-yl)-4-azaspiro[2.5]octane-7-carboxamide] | 681 nM | – | 1160 nM | – | –
15 | COc1cc(-c2cc(C(=O)N3CCC(C(=O)NCc4cc5ccccc5[nH]4)CC3)n[nH]2)c(Cl)cn1 [Example 250, N-((1H-indol-2-yl)methyl)-1-(5-(5-chloro-2-methoxypyridin-4-yl)-1H-pyrazole-3-carbonyl)piperidine-4-carboxamide] | 24.7 nM | – | 430 nM | – | –
16 | COc1cc(-c2cc(C(=O)N3CC[C@H](C(=O)NC4CCN(C5COC56CNC6)C4)CC34CC4)n[nH]2)c(F)cn1 (single isomer, unassigned) [Example 461-B] | 324 nM | > 10000 nM | – | – | –
17 | COc1cc(-c2cc(C(=O)N3CC[C@H](C(=O)NC4CCCn5cc(C(F)(F)F)nc54)CC34CC4)n[nH]2)c(F)cn1 (single isomer, unassigned) [Example 502-A] | 110 nM | 750 nM | – | – | –

Reference: patent US12606541B2, “PPARg modulators and methods of use” (Eisai R&D Management Co., Ltd., priority 2020, dated 2026)
